In US20240294466A1, “SODIUM N-(8-(2- HYDROXYBENZOYL)AMINO)CAPRYLATE P[…] A” (Novo Nordisk A/S, priority 2021, published 2024):

Experiments:
Assay type in all cases: physicochemical
[1] = XRPD FWHM of the peak at 8.7±0.2° 2θ (degree of crystal imperfections), method 1; conditions: Batch 5, tray oven
Procedure: (§1) XRPD was performed using a Malvern Panalytical Empyrean diffractometer at ambient conditions. The diffraction pattern was measured at room temperature using an Empyrean Cu LFF HR (45 kV/40 mA) source and PIXcel3D-Medipix3 1×1 detector. The measurement was performed in the range of 2-40° 20 using a scan speed of 0.067335° 2θ/s and a step size of 0.0262606° 2θ. The samples were measured in transmission mode and with a spinner revolution time of 1 second. Approximately 200 mg of sample were placed between two sheets of Kapton Polyimide Thin-film. The measurements were performed using a Soller slit of 0.04 radians and a fixed divergence slit of 0.5° on the incident beam, and a 3 mm Anti scatter slit and a Soller slit of 0.04 radians in the diffracted beam.
The degree of crystal imperfections was assessed by use of the FWHM as more crystal imperfections might cause peak broadening and lower peak height, which leads to higher FWHM values due to fewer lattice planes with identical orientation contributing to the diffraction peak. Oppositely, in the absence of crystal imperfections, lattice planes with identical orientation increase and result in narrower and higher diffraction peaks leading to smaller FWHM values. The FWHM was calculated using the characteristic peak at 8.7±0.2° 2θ by finding the apex of the peak and measuring the height of the peak applying the x-axis as the baseline (automatic mode) (see FIG. 11) or applying a baseline spanning the two surrounding troughs (manual mode) (see FIG. 12). This value is then divided in half to find the half height. Hereafter the width of the peak at that half height is measured and reported in ° 2θ. Alternatively, the peak at 6.0±0.2° 2θ may also be used to calculate the FWHM.
(§2) Samples from a batch of SNAC polymorphic form A (Batch 5) with a FWHM of 0.97° 2θ (automatic mode) and a moisture uptake of 1.98% at 65% RH from the beginning were heated to 90, 100, 110, 120, 130, and 140° C., respectively, in a tray oven. The samples were exposed to their respective temperatures for up to 72 h. The sample size was small enough to ensure that the samples equilibrated completely, within a few of minutes, to the oven temperature. Samples were taken during the 72 h of elevated temperature exposure and subjected to XRPD measurements in accordance with method 1 to determine the polymorphic form and impact on crystal imperfections using FWHM with the x-axis as the baseline (automatic mode).
(§3) Samples from different batches of SNAC polymorphic form A were subjected to a heat treatment in a tray oven and the sample size was small enough to ensure that the samples equilibrated completely and within a couple of minutes to the oven temperature. Samples were taken from the batches before the heat treatment and after the heat treatment and subjected to XRPD measurements in accordance with method 1 to determine the polymorphic form and impact on crystal imperfections using FWHM with the x-axis as the baseline (auto mode). Furthermore, samples were also subjected to DVS measurements in accordance with method 3 to determine the impact of the heat treatment on the hygroscopicity.

[2] = Dynamic vapour sorption (DVS) moisture uptake, method 3; conditions: for mass increase when subjected to an increase in relative humidity from about 0% to about 65% RH as determined by DVS: 25° C.; for Moisture absorbed for SNAC at 65% RH determined by DVS: DVS at 25 °C
Procedure: Moisture sorption/desorption data were measured by a Dynamic Vapour Sorption Advantage 1 from Surface Measurement Systems. Prior to analysis the samples were dried for up to about 48 h in desiccators containing phosphorus pentoxide. Approximately 20 mg of sample was placed into a balance pan and loaded into the instrument and the sample was then further dried for a minimum of 500 min in the instrument at 0% RH using a nitrogen purge. The resulting sample weight after the further drying was assigned as the 0% start weight and all weight gains and losses was calculated relative to this start weight. Sorption and desorption isotherms were collected over a range from 0 to 90% relative humidity (RH) using a nitrogen purge at 25° C. The threshold for equilibrium used for analysis was 0.002 to 0.0005 dm/dt.
Furthermore, samples were taken after 24 h of exposure at the indicated elevated temperatures and were subjected to dynamic vapor sorption measurements in accordance with method 3 to determine the hygroscopicity. The moisture uptake was measured at 65% RH. The hygroscopicity is decreased as the moisture absorbed at 65% RH decreases when exposing SNAC polymorphic form A to elevated temperatures for 24 h.

[3] = Polymorphic form determined by XRPD, method 1; conditions: for Polymorphic form of SNAC determined by XRPD: Batch 5, tray oven
Procedure: as §1
The polymorphic form of the sample was determined by comparison of the diffractogram obtained for the sample with reference diffractograms for the SNAC polymorphs and solvates.
as §2, §3

## O=C([O-])CCCCCCCNC(=O)c1ccccc1O.[Na+] [SNAC, monosodium N-[8-(2-hydroxybenzoyl)-amino]caprylate]
[1]; 90 °C, 0 h
  FWHM (automatic mode) for the XRPD peak around 8.7 ± 0.2° 2θ: 0.97 ° 2θ
[1]; 90 °C, 0.25 h
  FWHM (automatic mode) for the XRPD peak around 8.7 ± 0.2° 2θ: 0.95 ° 2θ
[1]; 90 °C, 0.5 h
  FWHM (automatic mode) for the XRPD peak around 8.7 ± 0.2° 2θ: 0.95 ° 2θ
[1]; 90 °C, 1 h
  FWHM (automatic mode) for the XRPD peak around 8.7 ± 0.2° 2θ: 0.92 ° 2θ
[1]; 90 °C, 6 h
  FWHM (automatic mode) for the XRPD peak around 8.7 ± 0.2° 2θ: 0.92 ° 2θ
[1]; 90 °C, 24 h
  FWHM (automatic mode) for the XRPD peak around 8.7 ± 0.2° 2θ: 0.89 ° 2θ
[1]; 90 °C, 48 h
  FWHM (automatic mode) for the XRPD peak around 8.7 ± 0.2° 2θ: 0.89 ° 2θ
[1]; 90 °C, 72 h
  FWHM (automatic mode) for the XRPD peak around 8.7 ± 0.2° 2θ: 0.89 ° 2θ
[1]; 100 °C, 0 h
  FWHM (automatic mode) for the XRPD peak around 8.7 ± 0.2° 2θ: 0.97 ° 2θ
[1]; 100 °C, 0.25 h
  FWHM (automatic mode) for the XRPD peak around 8.7 ± 0.2° 2θ: 1.02 ° 2θ
[1]; 100 °C, 0.5 h
  FWHM (automatic mode) for the XRPD peak around 8.7 ± 0.2° 2θ: 0.95 ° 2θ
[1]; 100 °C, 1 h
  FWHM (automatic mode) for the XRPD peak around 8.7 ± 0.2° 2θ: 0.95 ° 2θ
[1]; 100 °C, 6 h
  FWHM (automatic mode) for the XRPD peak around 8.7 ± 0.2° 2θ: 0.89 ° 2θ
[1]; 100 °C, 24 h
  FWHM (automatic mode) for the XRPD peak around 8.7 ± 0.2° 2θ: 0.81 ° 2θ
[1]; 100 °C, 48 h
  FWHM (automatic mode) for the XRPD peak around 8.7 ± 0.2° 2θ: 0.81 ° 2θ
[1]; 100 °C, 72 h
  FWHM (automatic mode) for the XRPD peak around 8.7 ± 0.2° 2θ: 0.81 ° 2θ
[1]; 110 °C, 0 h
  FWHM (automatic mode) for the XRPD peak around 8.7 ± 0.2° 2θ: 0.97 ° 2θ
[1]; 110 °C, 0.25 h
  FWHM (automatic mode) for the XRPD peak around 8.7 ± 0.2° 2θ: 0.92 ° 2θ
[1]; 110 °C, 0.5 h
  FWHM (automatic mode) for the XRPD peak around 8.7 ± 0.2° 2θ: 0.84 ° 2θ
[1]; 110 °C, 1 h
  FWHM (automatic mode) for the XRPD peak around 8.7 ± 0.2° 2θ: 0.87 ° 2θ
[1]; 110 °C, 6 h
  FWHM (automatic mode) for the XRPD peak around 8.7 ± 0.2° 2θ: 0.71 ° 2θ
[1]; 110 °C, 24 h
  FWHM (automatic mode) for the XRPD peak around 8.7 ± 0.2° 2θ: 0.66 ° 2θ
[1]; 110 °C, 48 h
  FWHM (automatic mode) for the XRPD peak around 8.7 ± 0.2° 2θ: 0.60 ° 2θ
[1]; 110 °C, 72 h
  FWHM (automatic mode) for the XRPD peak around 8.7 ± 0.2° 2θ: 0.58 ° 2θ
[1]; 120 °C, 0 h
  FWHM (automatic mode) for the XRPD peak around 8.7 ± 0.2° 2θ: 0.97 ° 2θ
[1]; 120 °C, 0.25 h
  FWHM (automatic mode) for the XRPD peak around 8.7 ± 0.2° 2θ: 0.81 ° 2θ
[1]; 120 °C, 0.5 h
  FWHM (automatic mode) for the XRPD peak around 8.7 ± 0.2° 2θ: 0.76 ° 2θ
[1]; 120 °C, 1 h
  FWHM (automatic mode) for the XRPD peak around 8.7 ± 0.2° 2θ: 0.71 ° 2θ
[1]; 120 °C, 6 h
  FWHM (automatic mode) for the XRPD peak around 8.7 ± 0.2° 2θ: 0.63 ° 2θ
[1]; 120 °C, 24 h
  FWHM (automatic mode) for the XRPD peak around 8.7 ± 0.2° 2θ: 0.58 ° 2θ
[1]; 120 °C, 48 h
  FWHM (automatic mode) for the XRPD peak around 8.7 ± 0.2° 2θ: 0.58 ° 2θ
[1]; 120 °C, 72 h
  FWHM (automatic mode) for the XRPD peak around 8.7 ± 0.2° 2θ: 0.53 ° 2θ
[1]; 130 °C, 0 h
  FWHM (automatic mode) for the XRPD peak around 8.7 ± 0.2° 2θ: 0.97 ° 2θ
[1]; 130 °C, 0.25 h
  FWHM (automatic mode) for the XRPD peak around 8.7 ± 0.2° 2θ: 0.81 ° 2θ
[1]; 130 °C, 0.5 h
  FWHM (automatic mode) for the XRPD peak around 8.7 ± 0.2° 2θ: 0.74 ° 2θ
[1]; 130 °C, 1 h
  FWHM (automatic mode) for the XRPD peak around 8.7 ± 0.2° 2θ: 0.66 ° 2θ
[1]; 130 °C, 6 h
  FWHM (automatic mode) for the XRPD peak around 8.7 ± 0.2° 2θ: 0.50 ° 2θ
[1]; 130 °C, 24 h
  FWHM (automatic mode) for the XRPD peak around 8.7 ± 0.2° 2θ: 0.50 ° 2θ
[1]; 130 °C, 48 h
  FWHM (automatic mode) for the XRPD peak around 8.7 ± 0.2° 2θ: 0.50 ° 2θ
[1]; 130 °C, 72 h
  FWHM (automatic mode) for the XRPD peak around 8.7 ± 0.2° 2θ: 0.50 ° 2θ
[1]; 140 °C, 0 h
  FWHM (automatic mode) for the XRPD peak around 8.7 ± 0.2° 2θ: 0.97 ° 2θ
[1]; 140 °C, 0.25 h
  FWHM (automatic mode) for the XRPD peak around 8.7 ± 0.2° 2θ: 0.68 ° 2θ
[1]; 140 °C, 0.5 h
  FWHM (automatic mode) for the XRPD peak around 8.7 ± 0.2° 2θ: 0.58 ° 2θ
[1]; 140 °C, 1 h
  FWHM (automatic mode) for the XRPD peak around 8.7 ± 0.2° 2θ: 0.53 ° 2θ
[1]; 140 °C, 6 h
  FWHM (automatic mode) for the XRPD peak around 8.7 ± 0.2° 2θ: 0.45 ° 2θ
[1]; 140 °C, 24 h
  FWHM (automatic mode) for the XRPD peak around 8.7 ± 0.2° 2θ: 0.45 ° 2θ
[1]; 140 °C, 48 h
  FWHM (automatic mode) for the XRPD peak around 8.7 ± 0.2° 2θ: 0.42 ° 2θ
[1]; 140 °C, 72 h
  FWHM (automatic mode) for the XRPD peak around 8.7 ± 0.2° 2θ: 0.45 ° 2θ
[2]; sample of FIG. 1
  mass increase when subjected to an increase in relative humidity from about 0% to about 65% RH as determined by DVS: less than 1.0%
[2]; sample of FIG. 2
  mass increase when subjected to an increase in relative humidity from about 0% to about 65% RH as determined by DVS: about 1.3%
[2]; sample of FIG. 3
  mass increase when subjected to an increase in relative humidity from about 0% to about 65% RH as determined by DVS: about 2.9%
[2]; Batch 5, after 24 h at 90 °C
  Moisture absorbed for SNAC at 65% RH determined by DVS: 1.73%
[2]; Batch 5, after 24 h at 100 °C
  Moisture absorbed for SNAC at 65% RH determined by DVS: 1.37%
[2]; Batch 5, after 24 h at 110 °C
  Moisture absorbed for SNAC at 65% RH determined by DVS: 1.21%
[2]; Batch 5, after 24 h at 120 °C
  Moisture absorbed for SNAC at 65% RH determined by DVS: 0.94%
[2]; Batch 5, after 24 h at 130 °C
  Moisture absorbed for SNAC at 65% RH determined by DVS: 0.81%
[2]; Batch 5, after 24 h at 140 °C
  Moisture absorbed for SNAC at 65% RH determined by DVS: 0.74%
[3]; 120 °C, 48 h
  Polymorphic form of SNAC determined by XRPD: A & B
[3]; 120 °C, 72 h
  Polymorphic form of SNAC determined by XRPD: A & B
[3]; 130 °C, 6 h
  Polymorphic form of SNAC determined by XRPD: A & B
[3]; 130 °C, 24 h
  Polymorphic form of SNAC determined by XRPD: A & B
[3]; 130 °C, 48 h
  Polymorphic form of SNAC determined by XRPD: A & B
[3]; 130 °C, 72 h
  Polymorphic form of SNAC determined by XRPD: A & B
[3]; 140 °C, 1 h
  Polymorphic form of SNAC determined by XRPD: A & B
[3]; 140 °C, 6 h
  Polymorphic form of SNAC determined by XRPD: A & B
[3]; 140 °C, 24 h
  Polymorphic form of SNAC determined by XRPD: A & B
[3]; 140 °C, 48 h
  Polymorphic form of SNAC determined by XRPD: A & B
[3]; 140 °C, 72 h
  Polymorphic form of SNAC determined by XRPD: A & B
[3]; at 120° C.
  onset time of conversion into polymorphic form B: more than 24 h
[3]; at 130° C.
  onset time of conversion into polymorphic form B: > 1 h
[3]; at 140° C.
  onset time of conversion into polymorphic form B: > 0.5 h
[3]; exposure for up to 72 h at temperatures up to about 110° C.
  conversion of the polymorphic form: does not convert
